Columns and labels:
KLRG-1 = test: Percent KLRG-1+/CD8+ T-cells in splenocytes after a single dose, melanoma murine model; assay type: in vivo, mice
Procedure: The pharmacodynamic (PD) effects of a single IV dose of Compound B in a melanoma murine model were evaluated. B16F10 melanoma cells were grown in RPMI 1640 media supplemented with 10% FBS and antibiotics (penicillin/streptomycin) using T75 flasks. When cells reached 70-80% confluency, they were treated with 3 ml of 0.25% Trypsin/EDTA. Afterward, detached cells were harvested. A single-cell suspension was prepared in PBS. An IV injection of 10^5 cells in mice marked day −3 of the experiment.
Animals were housed four per cage, and had access to food and water ad libitum. Compound B was dissolved in sterile PBS, and pH was adjusted to approximately 7.5. Sterile PBS served as control.
Three days after the IV injection of melanoma cells, animals in the baseline group (n=3) were sacrificed and their spleens were collected for KLRG-1, CTLA-4, and PD-1 analysis. At each predetermined time-point (24, 48, and 120 hours after dosing) three animals from each group were sacrificed for splenocyte analysis of KLRG-1, CTLA-4, and PD-1 expression levels, and expression levels were compared to baseline.
Spleens collected for splenocyte analysis were prepared into a single-cell suspension for cellular phenotyping by flow cytometry. Cells were stained and gated for CD8. Percent KLRG-1+, CTLA-4+, and PD-1+ CD8+ T-cells were evaluated using flow cytometry.
The PD effects of a single IV dose of Compound C were evaluated in a melanoma murine model conducted as described in Example 10. […] This study also evaluated whether Compound C was pharmacodynamically active orally.
In a prior study, Compound C was dosed at 1 mg IV QD for seven days. […] A single PO dose was chosen to confirm oral activity of Compound C. Compound C was dissolved in DMSO, and then diluted in sterile PBS. pH was adjusted to approximately 7.5.
The oral and intravenous PD effects of a single dose of Compound E were evaluated in a melanoma murine model conducted as described in Example 10.
Compound E was dissolved in DMSO, and then diluted in sterile PBS. pH was adjusted to approximately 7.5.

TIM3 and PD-1 = test: TIM3+/PD-1+ double-positive murine CD8+ T-cells, Example 7; assay type: cell-based, C57BL/6 mice; details: for effect on PS-stimulated TIM3+/PD-1+ double-positive CD8+ T-cells: 0.1 mM PS; for average reduction in TIM3+/PD-1+ double-positive CD8+ T-cells vs 0.1 mM PS treated cells / average reduction in TIM3+/PD-1+ double-positive CD8+ T-cells vs negative control: absence of PS, dose-independent
Excerpt: In this study, the effects of increasing doses of compound B and compound C on proliferation (CFSE staining), activation (Granzyme B and IFN-γ), and checkpoint modulation (PD1 and TIM3) of murine CD8+ T-cells in the presence and absence of phosphatidylserine (PS) were explored.
Preparation of test materials: 30:70 PS:DMPC liposomes were synthesized in PBS. […] Compound C was first dissolved in a small volume of DMSO before diluting to the final desired concentration.
Tissue culture and dosing: Splenocytes of C57BL/6 mice were stained with CFSE and prepared, cultured, and dosed. Cells were seeded at 4×10^5 cells/well.
Controls: Two controls were used. A negative control dosed with 10 ng/ml IL-2 was used, and a positive control dosed with 20 μg/ml ConA and 10 ng/ml IL-2 was used.
Treatment: After ConA stimulation (10 μg/ml), cells were dosed with log 3 dilution of compound B or compound C to cover a range from 1×10^−3 to 30 mM in duplicates with or without 0.1 mM PS:DMPC liposomes. All wells were dosed with 10 ng/ml of IL-2.
Flow cytometer: Flow cytometer analysis was performed to assess cell proliferation by CFSE, activation by double staining for Granzyme B (GzmB) and IFN-γ, checkpoint modulation by double staining for PD-1 and TIM3.
Exposure-response analysis: Change from baseline was calculated for each marker as follows:
Concentration versus change was fitted to an appropriate three-, four- or five-parameter log-logistic model using “dre” package in “R.”
The fold change from baseline of TIM3+/PD-1+ double-positive CD8+ T-cells as a function of increasing doses of compound B was calculated using equation 1, where Responsecontrol was TIM3+/PD-1+ double-positive CD8+ T-cells in cells treated with IL-2 alone and Responsetreatment was TIM3+/PD-1+ double-positive CD8+ T-cells at each dose of compound B. The baseline PS response was calculated using the same equation with Responsetreatment as the TIM3+/PD-1+ double-positive CD8+ T-cells treated with 0.1 mM PS.

B16F10 melanoma cells [1] = test: Lung metastasis and survival after IV B16F10 melanoma cells (Example 16); assay type: in vivo, C57BL6 mice; details: 4 mg/mouse orally daily for two weeks
Procedure: C57BL6 mice received 10^5 B16F10 melanoma cells via IV injection at day 0. At day 7, mice were randomized into one of two groups (n=6 per group): an untreated group and a group treated orally with Compound B at 4 mg/mouse daily for two weeks.
At the end of the first week of treatment (14 days after tumor injection), three mice from each group were euthanized, and lung metastasis was counted (FIG. 11A). By the end of the second week of treatment (21 days after tumor injection), two out of the three remaining control mice had died. The remaining control mouse and the three remaining Compound B-treated mice were euthanized, and lung metastasis assessed (FIG. 111B).

Oral bioavailability = assay type: in vivo
B16F10 melanoma cells [2] = test: Dose-dependent tumor regression in established B16F10 tumors (Example 15); assay type: in vivo, C57BL6 mice
Procedure: C57BL6 mice received 10^5 B16F10 melanoma cells via SC injection at day 0. Tumor growth was monitored until tumor size reached 200 to 300 mm^3, at which time the mouse was randomized into one of the treatment groups or the control group. Mice were dosed orally until the end of the study.

melanoma cells = test: Tumor growth inhibition and overall survival, two doses of Compound B (Example 14); assay type: in vivo, mice
Procedure: This study was designed to evaluate the effects of two different doses of Compound B on tumor growth and the overall survival of animals implanted SC with 10^5 melanoma cells. The study was carried out in accordance with the study described in Example 13, except that mice received either placebo, 0.4 mg/mouse PO QD of Compound B for seven days starting at day 7 after tumor implantation, or 4 mg/mouse PO QD of Compound B for seven days starting at day 7 after tumor implantation.

O=C(O)[C@H](O)[C@@H](O)C(=O)OCCCc1ccccc1 [Compound B, (2R,3R)-2,3-dihydroxy-4-oxo-4-(3-phenylpropoxy)butanoic acid]
KLRG-1+/CD8+ T-cells, mean (KLRG-1; 0.14 mg/mouse IV single dose, 24 h): 6.2%
KLRG-1+/CD8+ T-cells, mean (KLRG-1; 0.14 mg/mouse IV single dose, 48 h): 4.8%
KLRG-1+/CD8+ T-cells, mean (KLRG-1; 0.14 mg/mouse IV single dose, 120 h): 11.4%
KLRG-1+/CD8+ T-cells, mean (KLRG-1; 0.7 mg/mouse IV single dose, 24 h): 6.5%
KLRG-1+/CD8+ T-cells, mean (KLRG-1; 0.7 mg/mouse IV single dose, 48 h): 3.0%
KLRG-1+/CD8+ T-cells, mean (KLRG-1; 0.7 mg/mouse IV single dose, 120 h): 11.7%
KLRG-1+/CD8+ T-cells, mean (KLRG-1; 1.4 mg/mouse IV single dose, 24 h): 7.6%
KLRG-1+/CD8+ T-cells, mean (KLRG-1; 1.4 mg/mouse IV single dose, 48 h): 2.5%
KLRG-1+/CD8+ T-cells, mean (KLRG-1; 1.4 mg/mouse IV single dose, 120 h): 11.3%
time of nadir of exhaustion markers after dosing (KLRG-1; single dose, KLRG-1, CTLA-4, PD-1): 48 h
effect on PS-stimulated TIM3+/PD-1+ double-positive CD8+ T-cells (TIM3 and PD-1): reverse the stimulatory effects of PS
average reduction in TIM3+/PD-1+ double-positive CD8+ T-cells vs 0.1 mM PS treated cells (TIM3 and PD-1): about ⅔
average reduction in TIM3+/PD-1+ double-positive CD8+ T-cells vs negative control (TIM3 and PD-1): about ⅗
lung metastasis (B16F10 melanoma cells [1]): controlled (e.g., prevented) metastasis
survival compared to untreated mice (B16F10 melanoma cells [1]): improved survival
bioavailability (Oral bioavailability; mouse, in vivo, po, data not shown): ~30%
day by which all animals died of disease (B16F10 melanoma cells [2]; 0.1 mg PO, tumors 200 to 300 mm^3 at start): ≤ 20 days
day by which animals died (B16F10 melanoma cells [2]; 0.4 mg PO): ≤ 30 days
tumor progression versus low-dose group and untreated mice (B16F10 melanoma cells [2]; 0.4 mg PO): progressed more slowly
tumor growth (B16F10 melanoma cells [2]; 1 mg PO): Tumor growth control was observed early on
tumor growth (B16F10 melanoma cells [2]; 4 mg PO): Tumor regression was observed
efficacy of low dose relative to high-dose (4 mg) treatment (melanoma cells; 0.4 mg PO): 70%
survival (melanoma cells; 0.4 mg and 4 mg/mouse PO QD groups): significant increase in survival
mice tumor-free for at least 10 days after treatment stopped (melanoma cells; 0.4 mg/mouse PO QD for seven days): 70%
mice tumor-free for at least 10 days after treatment stopped (melanoma cells; 4 mg/mouse PO QD for seven days): 90%

O=C(O)[C@H](O)[C@@H](O)C(=O)OCCC(c1ccccc1)c1ccccc1 [Compound C, (2R,3R)-4-(3,3-diphenylpropoxy)-2,3-dihydroxy-4-oxobutanoic acid]
KLRG-1+/CD8+ T-cells, mean (KLRG-1; 0.025 mg/mouse IV single dose, 24 h): 4.9%
KLRG-1+/CD8+ T-cells, mean (KLRG-1; 0.1 mg/mouse IV single dose, 24 h): 4.1%
KLRG-1+/CD8+ T-cells, mean (KLRG-1; 0.25 mg/mouse IV single dose, 24 h): 3.4%
KLRG-1+/CD8+ T-cells, mean (KLRG-1; 1 mg/mouse IV single dose, 24 h): 3.3%
oral pharmacodynamic activity (KLRG-1; 2.5 mg PO single dose): not orally effective at the tested dose
KLRG-1+/CD8+ T-cells, mean (KLRG-1; 2.5 mg/mouse po single dose, 24 h): 4.6%
decrease in KLRG-1+/CD8+ T-cells compared to baseline (KLRG-1; 0.25- and 1-mg IV groups): approximately 15%
decrease in KLRG-1+/CD8+ T-cells compared to time match control (KLRG-1; 0.25- and 1-mg IV groups): approximately 31%
change in KLRG-1+/CD8+ T-cells compared to baseline or control (KLRG-1; remaining groups (0.025, 0.1 mg IV, 2.5 mg PO)): No meaningful changes
effect on PS-stimulated TIM3+/PD-1+ double-positive CD8+ T-cells (TIM3 and PD-1): can reverse the stimulatory effect of PS
average reduction in TIM3+/PD-1+ double-positive CD8+ T-cells vs 0.1 mM PS treated cells (TIM3 and PD-1): about ⅘
average reduction in TIM3+/PD-1+ double-positive CD8+ T-cells vs negative control (TIM3 and PD-1): about ⅔
oral bioavailability (Oral bioavailability; prior study): not orally bioavailable
